Experimental data: patent publication US12227495B2, “Herbicidal compounds” (SYNGENTA CROP PROTECTION AG, priority 2018, dated 2025)

Tests used:
Type in all cases: in vivo
[1] = system: Amaranthus retoflexus (AMARE); assay: Post-emergence herbicide test, glasshouse, percentage damage; details: 1000 g/ha, evaluated after 13 days
In short: (§1)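 Spray: acetone/water (50:50) with 0.5% Tween 20, 500 g/ha unless stated; pre-emergence 1 d after sowing, post-emergence at 8 d. Glasshouse 24/16 °C, 14 h light, 65% RH, watered twice daily. Read at 13 d, % damage as 1-5 score.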

[2] = system: Echinochloa crus-galli (ECHCG); assay: as above; details: 1000 g/ha, evaluated after 13 days
In short: as §1

[3] = system: Ipomoea hederacea (IPOHE); assay: as above; details: 1000 g/ha, evaluated after 13 days
In short: as §1

[4] = system: Lolium perenne (LOLPE); assay: as above; details: 1000 g/ha, evaluated after 13 days
In short: as §1

[5] = system: Setaria faberi (SETFA); assay: as above; details: 1000 g/ha, evaluated after 13 days
In short: as §1

[6] = system: Solanum nigrum (SOLNI); assay: as above; details: 1000 g/ha, evaluated after 13 days
In short: as §1

[7] = system: Amaranthus retoflexus (AMARE); assay: Pre-emergence herbicide test, glasshouse, percentage damage; details: rate 1000 g/ha, evaluated after 13 days
In short: as §1

[8] = system: Echinochloa crus-galli (ECHCG); assay: as above; details: rate 1000 g/ha, evaluated after 13 days
In short: as §1

[9] = system: Ipomoea hederacea (IPOHE); assay: as above; details: rate 1000 g/ha, evaluated after 13 days
In short: as §1

[10] = system: Lolium perenne (LOLPE); assay: as above; details: rate 1000 g/ha, evaluated after 13 days
In short: as §1

[11] = system: Setaria faberi (SETFA); assay: as above; details: rate 1000 g/ha, evaluated after 13 days
In short: as §1

[12] = system: Solanum nigrum (SOLNI); assay: as above; details: rate 1000 g/ha, evaluated after 13 days
In short: as §1

Row | Compound | percentage damage caused to the plant, AMARE [1] | percentage damage caused to the plant, ECHCG [2] | percentage damage caused to the plant, IPOHE [3] | percentage damage caused to the plant, LOLPE [4] | percentage damage caused to the plant, SETFA [5] | percentage damage caused to the plant, SOLNI [6] | Pre-emergence Test AMARE percentage damage (five point scale) [7] | Pre-emergence Test ECHCG percentage damage (five point scale) [8] | Pre-emergence Test IPOHE percentage damage (five point scale) [9] | Pre-emergence Test LOLPE percentage damage (five point scale) [10] | Pre-emergence Test SETFA percentage damage (five point scale) [11] | Pre-emergence Test SOLNI percentage damage (five point scale) [12]
1 | Cc1cccc(-c2cc(C(F)F)no2)c1Oc1ncc(Cl)cc1F [Compound A94] | 4 (4=61-80%) | 2 (2=21-40%) | 1 (1=0-20%) | 2 (2=21-40%) | 3 (3=41-60%) | 4 (4=61-80%) | 4 (4=61-80%) | 3 (3=41-60%) | 1 (1=0-20%) | 2 (2=21-40%) | 2 (2=21-40%) | 2 (2=21-40%)
2 | Fc1cc(Cl)cnc1Oc1c(Cl)cccc1-c1cc(C(F)F)no1 [Compound A95] | 4 (4=61-80%) | 3 (3=41-60%) | 1 (1=0-20%) | 3 (3=41-60%) | 4 (4=61-80%) | 4 (4=61-80%) | 4 (4=61-80%) | 4 (4=61-80%) | 1 (1=0-20%) | 1 (1=0-20%) | 3 (3=41-60%) | 1 (1=0-20%)
3 | Fc1cc(Cl)cnc1Oc1ccccc1-c1cc(C(F)(F)F)cs1 [Compound A97, 5-chloro-3-fluoro-2-[2-[4-(trifluoromethyl)-2-thienyl]phenoxy]pyridine] | 5 (5=81-100%) | 4 (4=61-80%) | 4 (4=61-80%) | 3 (3=41-60%) | 5 (5=81-100%) | 4 (4=61-80%) | 4 (4=61-80%) | 3 (3=41-60%) | 2 (2=21-40%) | 2 (2=21-40%) | 4 (4=61-80%) | 2 (2=21-40%)
4 | Fc1cccc(Oc2cccc(Br)c2-c2cc(C(F)F)no2)n1 [Compound A98] | 4 (4=61-80%) | 4 (4=61-80%) | 3 (3=41-60%) | 3 (3=41-60%) | 5 (5=81-100%) | 4 (4=61-80%) | 4 (4=61-80%) | 5 (5=81-100%) | 1 (1=0-20%) | 3 (3=41-60%) | 5 (5=81-100%) | 3 (3=41-60%)
5 | FC(F)c1cc(-c2c(Br)cccc2Oc2cc(C(F)(F)F)ccn2)on1 [Compound A99] | 5 (5=81-100%) | 4 (4=61-80%) | 2 (2=21-40%) | 3 (3=41-60%) | 4 (4=61-80%) | 4 (4=61-80%) | 5 (5=81-100%) | 4 (4=61-80%) | 1 (1=0-20%) | 3 (3=41-60%) | 4 (4=61-80%) | 1 (1=0-20%)
6 | Fc1cnc(Oc2cccc(Br)c2-c2cc(C(F)F)no2)c(F)c1 [Compound A101] | 5 (5=81-100%) | 4 (4=61-80%) | 5 (5=81-100%) | 4 (4=61-80%) | 5 (5=81-100%) | 5 (5=81-100%) | 5 (5=81-100%) | 5 (5=81-100%) | 5 (5=81-100%) | 5 (5=81-100%) | 5 (5=81-100%) | 4 (4=61-80%)
7 | N#Cc1ccc(Oc2cccc(Br)c2-c2cc(C(F)F)no2)nc1 [Compound A102] | 5 (5=81-100%) | 4 (4=61-80%) | 5 (5=81-100%) | 4 (4=61-80%) | 5 (5=81-100%) | 5 (5=81-100%) | 5 (5=81-100%) | 5 (5=81-100%) | 4 (4=61-80%) | 5 (5=81-100%) | 5 (5=81-100%) | 4 (4=61-80%)
8 | Fc1cc(Br)cnc1Oc1cccc(Br)c1-c1cc(C(F)F)no1 [Compound A103] | 5 (5=81-100%) | 4 (4=61-80%) | 5 (5=81-100%) | 5 (5=81-100%) | 5 (5=81-100%) | 5 (5=81-100%) | 5 (5=81-100%) | 5 (5=81-100%) | 5 (5=81-100%) | 5 (5=81-100%) | 5 (5=81-100%) | 3 (3=41-60%)
9 | Fc1cc(C(F)(F)F)cnc1Oc1cccc(Br)c1-c1cc(C(F)F)no1 [Compound A104] | 4 (4=61-80%) | 4 (4=61-80%) | 4 (4=61-80%) | 3 (3=41-60%) | 4 (4=61-80%) | 5 (5=81-100%) | 4 (4=61-80%) | 4 (4=61-80%) | 4 (4=61-80%) | 4 (4=61-80%) | 5 (5=81-100%) | 2 (2=21-40%)
10 | N#Cc1cc(Cl)cnc1Oc1cccc(Br)c1-c1cc(C(F)F)no1 [Compound A105] | 5 (5=81-100%) | 4 (4=61-80%) | 5 (5=81-100%) | 4 (4=61-80%) | 5 (5=81-100%) | 5 (5=81-100%) | 5 (5=81-100%) | 5 (5=81-100%) | 5 (5=81-100%) | 5 (5=81-100%) | 5 (5=81-100%) | 5 (5=81-100%)
11 | FC(F)c1cc(-c2c(Br)cccc2Oc2ccc(Br)cn2)on1 [Compound A106] | 5 (5=81-100%) | 4 (4=61-80%) | 4 (4=61-80%) | 5 (5=81-100%) | 5 (5=81-100%) | 5 (5=81-100%) | 4 (4=61-80%) | 5 (5=81-100%) | 3 (3=41-60%) | 5 (5=81-100%) | 5 (5=81-100%) | 3 (3=41-60%)
12 | N#Cc1cccnc1Oc1cccc(Br)c1-c1cc(C(F)F)no1 [Compound A107] | 5 (5=81-100%) | 4 (4=61-80%) | 4 (4=61-80%) | 3 (3=41-60%) | 5 (5=81-100%) | 5 (5=81-100%) | 5 (5=81-100%) | 4 (4=61-80%) | 3 (3=41-60%) | 2 (2=21-40%) | 5 (5=81-100%) | 2 (2=21-40%)
